What was measured:
Factor XIa = Factor XIa (Homo sapiens, UniProt P03951); test: Factor XIa inhibition assay utilizing a fluorophore-quencher pair peptide substrate (FLINT); assay type: biochemical; settings: 11-point, 3-fold serial dilution, top 100 nM; 30 min preincubation; 15 μM 5Fam-KLTRAETV-K5Tamra substrate; kinetic reads over 30 min; read-out: FXIa Inhibition IC50
In short: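 FXIa ([…]) preincubated 30 min with compound (11-point, 3-fold, top 100 nM, 2% DMSO) in Tris pH 7.5, NaCl, CaCl2, BSA, CHAPS; 15 μM 5Fam-KLTRAETV-K5Tamra substrate then added. Fluorescence (485/520 nm) read kinetically over 30 min at room temperature; IC50 by 4-parameter fit.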

human plasma kallikrein = human plasma kallikrein (Homo sapiens, UniProt P03952); test: Kallikrein inhibition assay utilizing a quenched AMC peptide substrate (FLINT); assay type: biochemical; settings: 11-point, 3-fold serial dilution, top 1 μM; 30 min preincubation; 2 nM kallikrein; 50 μM Z-Gly-Pro-Arg-AMC; kinetic reads over 30 min
Chain of human plasma kallikrein (P03952 391-638 limits assumed): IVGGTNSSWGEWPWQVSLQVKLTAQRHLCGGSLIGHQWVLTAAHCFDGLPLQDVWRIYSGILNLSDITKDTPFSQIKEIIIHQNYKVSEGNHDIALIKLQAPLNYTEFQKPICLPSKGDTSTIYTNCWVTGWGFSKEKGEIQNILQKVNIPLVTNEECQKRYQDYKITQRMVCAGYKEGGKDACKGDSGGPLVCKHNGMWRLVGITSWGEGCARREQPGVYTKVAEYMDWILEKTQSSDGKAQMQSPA
Chain of human plasma kallikrein (P03952 20-390 partner limits assumed): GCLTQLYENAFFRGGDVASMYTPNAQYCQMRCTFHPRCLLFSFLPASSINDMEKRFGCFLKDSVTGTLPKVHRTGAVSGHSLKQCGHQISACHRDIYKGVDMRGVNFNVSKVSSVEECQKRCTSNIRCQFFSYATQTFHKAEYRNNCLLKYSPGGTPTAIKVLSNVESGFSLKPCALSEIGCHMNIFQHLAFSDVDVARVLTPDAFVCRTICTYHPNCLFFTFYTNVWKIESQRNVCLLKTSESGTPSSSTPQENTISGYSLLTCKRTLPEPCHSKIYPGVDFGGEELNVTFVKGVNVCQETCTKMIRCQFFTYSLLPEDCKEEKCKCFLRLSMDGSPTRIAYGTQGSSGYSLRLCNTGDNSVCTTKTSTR
In short: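 Human plasma kallikrein (2 nM final) was pre-incubated 30 min at room temperature with compound (11-point 3-fold series, top 1 μM, 2% DMSO) in Tris pH 7.5, NaCl, CaCl2, BSA, CHAPS buffer. Reaction started with 50 μM Z-Gly-Pro-Arg-AMC (KM 40 μM), and fluorescence (340/440 nm) was read kinetically over 30 min. IC50 came from a 4-parameter logistic fit.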

Chain of Factor XIa (P03951 388-625 limits assumed): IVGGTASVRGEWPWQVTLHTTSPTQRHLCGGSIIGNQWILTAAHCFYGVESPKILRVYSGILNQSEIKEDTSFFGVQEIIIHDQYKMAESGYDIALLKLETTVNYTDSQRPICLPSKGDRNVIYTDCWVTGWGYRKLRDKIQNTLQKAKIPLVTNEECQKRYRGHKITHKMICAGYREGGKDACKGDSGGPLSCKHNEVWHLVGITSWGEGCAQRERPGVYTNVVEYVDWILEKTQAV
Chain of Factor XIa (P03951 19-387 partner limits assumed): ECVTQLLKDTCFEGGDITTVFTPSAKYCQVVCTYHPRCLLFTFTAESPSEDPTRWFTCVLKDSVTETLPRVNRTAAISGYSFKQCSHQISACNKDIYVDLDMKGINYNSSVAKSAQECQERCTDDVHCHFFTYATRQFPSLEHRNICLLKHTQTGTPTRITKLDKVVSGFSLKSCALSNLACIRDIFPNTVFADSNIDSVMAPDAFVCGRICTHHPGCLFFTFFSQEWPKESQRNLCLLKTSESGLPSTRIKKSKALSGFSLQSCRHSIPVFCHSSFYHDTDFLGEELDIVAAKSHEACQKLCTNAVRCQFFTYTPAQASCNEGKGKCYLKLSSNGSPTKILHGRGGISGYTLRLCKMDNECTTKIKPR

## O=C(Nc1ccc2c(c1)C(F)(F)C(=O)N2)[C@@H]1CC[C@@H]2CC(c3c(-n4cnnn4)ccc(Cl)c3F)=CC(=O)N21 [ID No. 15, (3S,8aR)-7-(3-Chloro-2-fluoro-6-(1H-tetrazol-1-yl)phenyl)-N-(3,3-difluoro-2-oxoindolin-5-yl)-5-oxo-1,2,3,5,8,8a-hexahydroindolizine-3-carboxamide]
Factor XIa
  IC50: 36.8 nM
Human plasma kallikrein
  IC50: 55.7 nM

## Cn1nc2ccc(NC(=O)[C@@H]3CC[C@@H]4CC(c5c(-n6cnnn6)ccc(Cl)c5F)=CC(=O)N43)cc2n1 [ID No. 16, (3S,8aR)-7-(3-Chloro-2-fluoro-6-(1H-tetrazol-1-yl)phenyl)-N-(2-methyl-2H-benzo[d][1,2,3]triazol-5-yl)-5-oxo-1,2,3,5,8,8a-hexahydroindolizine-3-carboxamide]
Factor XIa
  IC50: 25 nM
Human plasma kallikrein
  IC50: 45.3 nM

## O=C(Nc1ccc(-c2noc(=O)[nH]2)cc1)[C@@H]1CC[C@@H]2CC(c3c(-n4cnnn4)ccc(Cl)c3F)=CC(=O)N21 [ID No. 17, (3S,8aR)-7-(3-Chloro-2-fluoro-6-(1H-tetrazol-1-yl)phenyl)-5-oxo-N-(4-(5-oxo-4,5-dihydro-1,2,4-oxadiazol-3-yl)phenyl)-1,2,3,5,8,8a-hexahydroindolizine-3-carboxamide]
Factor XIa
  IC50: 3.4 nM
Human plasma kallikrein
  IC50: 60.1 nM

## O=C(Nc1ccc2nc[nH]c(=O)c2c1)[C@@H]1CC[C@@H]2CC(c3c(-n4cnnn4)ccc(Cl)c3F)=CC(=O)N21 [ID No. 18, (3S,8aR)-7-(3-Chloro-2-fluoro-6-(1H-tetrazol-1-yl)phenyl)-5-oxo-N-(4-oxo-3,4-dihydroquinazolin-6-yl)-1,2,3,5,8,8a-hexahydroindolizine-3-carboxamide]
Factor XIa
  IC50: 6.1 nM
Human plasma kallikrein
  IC50: 9.2 nM

## Cn1cc2cc(NC(=O)[C@@H]3CC[C@@H]4CC(c5c(-n6cnnn6)ccc(Cl)c5F)=CC(=O)N43)ccc2n1 [ID No. 19, (3S,8aR)-7-(3-Chloro-2-fluoro-6-(1H-tetrazol-1-yl)phenyl)-N-(2-methyl-2H-indazol-5-yl)-5-oxo-1,2,3,5,8,8a-hexahydroindolizine-3-carboxamide]
Factor XIa
  IC50: 39.4 nM
Human plasma kallikrein
  IC50: 169 nM

## Cc1nc(-c2ccc(NC(=O)[C@@H]3CC[C@@H]4CC(c5c(-n6cnnn6)ccc(Cl)c5F)=CC(=O)N43)cc2)co1 [ID No. 20, (3S,8aR)-7-(3-Chloro-2-fluoro-6-(1H-tetrazol-1-yl)phenyl)-N-(4-(2-methyloxazol-4-yl)phenyl)-5-oxo-1,2,3,5,8,8a-hexahydroindolizine-3-carboxamide]
Factor XIa
  IC50: 25.9 nM
Human plasma kallikrein
  IC50: 112 nM

## O=C(Nc1ccc2[nH]nnc2c1)[C@@H]1CC[C@@H]2CC(c3c(-n4cnnn4)ccc(Cl)c3F)=CC(=O)N21 [ID No. 21, (3S,8aR)—N-(1H-Benzo[d][1,2,3]triazol-5-yl)-7-(3-chloro-2-fluoro-6-(1H-tetrazol-1-yl)phenyl)-5-oxo-1,2,3,5,8,8a-hexahydroindolizine-3-carboxamide]
Factor XIa
  IC50: 9.1 nM
Human plasma kallikrein
  IC50: 37.4 nM

## NC(=O)c1ccc(NC(=O)[C@@H]2CC[C@@H]3CC(c4c(-n5cc(C(F)(F)F)nn5)ccc(Cl)c4F)=CC(=O)N32)cc1F [ID No. 24, (3S,8aR)—N-(4-Carbamoyl-3-fluorophenyl)-7-(3-chloro-2-fluoro-6-(4-(trifluoromethyl)-1H-1,2,3-triazol-1-yl)phenyl)-5-oxo-1,2,3,5,8,8a-hexahydroindolizine-3-carboxamide]
Factor XIa
  IC50: 38.2 nM
Human plasma kallikrein
  IC50: 76.1 nM

## NC(=O)c1ccc(NC(=O)[C@@H]2CC[C@@H]3CC(c4cc(Cl)ccc4-n4cc(C(F)(F)F)nn4)=CC(=O)N32)cc1F [ID No. 25, (3S,8aR)—N-(4-Carbamoyl-3-fluorophenyl)-7-(5-chloro-2-(4-(trifluoromethyl)-1H-1,2,3-triazol-1-yl)phenyl)-5-oxo-1,2,3,5,8,8a-hexahydroindolizine-3-carboxamide]
Factor XIa
  IC50: 28.1 nM
Human plasma kallikrein
  IC50: 116 nM

## CN(C)c1ccnc2ccc(NC(=O)C3CCC4CC(c5c(-n6cnnn6)ccc(Cl)c5F)=CC(=O)N43)cc12 (centres unmarked) [compound 87]
Factor XIa
  IC50: 20.8 nM
Human plasma kallikrein
  IC50: 64.9 nM

## CN(C)c1ccnc2ccc(NC(=O)C3CCC4CC(c5c(-n6cc(Cl)nn6)ccc(Cl)c5F)=CC(=O)N43)cc12 (centres unmarked) [compound 88]
Factor XIa
  IC50: > 50 nM
Human plasma kallikrein
  IC50: 160 nM

## CN(C)c1ccnc2ccc(NC(=O)C3CCC4CC(c5c(-n6cc(C(F)(F)F)nn6)ccc(Cl)c5F)=CC(=O)N43)cc12 (centres unmarked) [compound 89]
Factor XIa
  IC50: > 50 nM
Human plasma kallikrein
  IC50: 637 nM

## [2H]c1nnnn1-c1ccc(Cl)c(F)c1C1=CC(=O)N2C(CCC2C(=O)Nc2ccc3c(c2)C2(CC2)C(=O)N3)C1 (centres unmarked) [compound 96]
Factor XIa
  IC50: 42.2 nM
Human plasma kallikrein
  IC50: 128 nM

## CC1C(=O)Nc2c(NC(=O)[C@@H]3CC[C@@H]4CC(c5c(-n6cc(C(F)(F)F)nn6)ccc(Cl)c5F)=CC(=O)N43)cccc21 (some centres unmarked) [compound 102]
Factor XIa
  IC50: > 50 nM
Human plasma kallikrein
  IC50: 570 nM

## Cn1nc2ccc(NC(=O)C3CCC4CC(c5c(-n6cc(Cl)nn6)ccc(Cl)c5F)=CC(=O)N43)cc2n1 (centres unmarked) [compound 105]
Factor XIa
  IC50: > 50 nM
Human plasma kallikrein
  IC50: 120 nM

## Cn1nc2ccc(NC(=O)C3CCC4CC(c5c(-n6cc(C(F)(F)F)nn6)ccc(Cl)c5F)=CC(=O)N43)cc2n1 (centres unmarked) [compound 106]
Factor XIa
  IC50: > 50 nM
Human plasma kallikrein
  IC50: 497 nM
